“And” between values parts separate entries of the source, which are not always exact repeats. Identical values can stand only once.
Experiments:
[1] = tested on: individuals diagnosed with DSWPD and having at least one copy of the rs184039278 CRY1 allele; test: Sleep parameters after 20 mg tasimelteon before bedtime, by rs184039278 CRY1 genotype; assay type: in vivo, human
Protocol: In a study of genetic variations associated with sleep-wake patterns, Applicant found a significant association between the rs184039278 CRY1 allele and efficacy of treatment with tasimelteon. […] Both groups were treated with 20 mg of tasimelteon before bed.

[2] = tested on: totally blind patients with Non-24; details: cited from earlier work
[3] = individual DSWPD patients, rs184039278 CRY1 G/T, 20 mg tasimelteon prior to bedtime

CCC(=O)NC[C@@H]1C[C@H]1c1cccc2c1CCO2 [tasimelteon, Tasimelteon]
total sleep time (TST), WT versus MT individuals (FIG. 1) ([1]; WT (no rs184039278 CRY1 allele) compared to MT (at least one copy), both 20 mg tasimelteon before bed): both lower and more variable than for MT individuals
Total Sleep Time In First Two-Thirds Of Night [1, 3]: 308 min and 293.5 min
percentage of total sleep time (sleep efficiency) [1, 3]: 96 and 91
sleep parameters (LPS, sleep efficiency, REM sleep duration, TST, WASO) ([1]; individuals having at least one copy of the rs184039278 CRY1 allele, tasimelteon before bedtime): improvements in one or more sleep parameters
efficacy on circadian timing system and sleep [2]: phase advance the circadian timing system (CTS) and to improve nighttime sleep and decrease daytime sleep

Source: patent US20260000637A1, “METHOD OF IMPROVING SLEEP” (VANDA PHARMACEUTICALS INC., priority 2019, published 2026)
